Data reported in US8143260B2, “Tricyclic amine compound” (Research Foundation Itsuu Laboratory, priority 2007, dated 2012).
Values joined by “and” are separate entries in the source; they are usually repeats but may differ in a detail not shown here. Equal values may be shown once.

Tested on: human acute promyelocytic leukemia cell strain HL-60
Test: Differentiation induction of HL-60 cells (NBT-reducing ability); enhancement of the retinoid action of Am80
Assay type: cell-based
Conditions: for Differentiation induction ratio (%), Am80 1 nM + Test compound: four days; for Differentiation induction ratio (%), Test compound alone: test compound alone 100 nM
Protocol: Cells of human acute promyelocytic leukemia cell strain HL-60 were cultured in a CO2 incubator (5% CO2, 37° C.) using the RPMI medium containing 5% FBS. Differentiation inducing action on the HL-60 cells induced by 4-[(5,6,7,8-tetrahydro-5,5,8,8-tetramethyl-2-naphthalenyl)carbamoyl]benzoic acid (Am80) was evaluated on the basis of ability to reduce nitroblue tetrazolium (NBT) determined by observing differentiation from promyelocytic cells into granulocytic cells as an index. The cells that entered into the logarithmic phase and reached a substantially confluent state were centrifuged at 1000 rpm for 5 minutes, and the culture supernatant was removed. The cell pellet was suspended in fresh RPMI medium containing 5% FBS at a density of 8.0×10^4 cells/ml, then the suspension was added with a test compound dissolved in DMSO at an intended concentration, and the cells were cultured for four days and then used for the experiment. The samples were prepared so as to have the same DMSO concentration.
Cell count of the cells after the culture for a predetermined period was determined by a cell counting method using a blood cell counting chamber. The NBT-reducing ability was obtained as follows. NBT was dissolved in phosphate buffered saline (PBS(−)) at a concentration of 0.2%, and the solution was added with an equivalent volume of the RPMI medium containing 5% FBS. The mixture was added with phorbol 12-myristate 13-acetate (tPA) at a concentration of 0.2 μM (about 200 ng) to prepare a reagent solution. The collected cells were centrifuged at 1000 rpm for 5 minutes, the supernatant was removed, and the remained cell pellet was added with the reagent solution. The mixture was incubated on a water bath at 37° C. for 20 minutes, and then NBT-reduced stained positive cells were counted by using the counting chamber to calculate a differentiation induction ratio. The same test was performed with allowing the compounds of the present invention prepared in the aforementioned examples (all were carboxylic acid compounds) to coexist with Am80 to confirm action of the compounds of the present invention for enhancing the retinoid action of Am80. As a compound having a retinoid action enhancing action (positive control), 4-[2,3-(2,5-dimethyl-2,5-hexano)dibenzo[b,f][1,4]thiazepin-11-yl]benzoic acid (HX630, Japanese Patent Unexamined Publication No. 10-59951) was used.

[1] = Am80 1 nM + test compound 1 × 10^−7M
[2] = Am80 1 nM + test compound 1 × 10^−8M
[3] = Am80 1 nM + test compound 1 × 10^−9M
[4] = cultured four days, NBT-positive cells

Compound	Differentiation induction ratio (%), Am80 1 nM + Test compound [1] [%]	Differentiation induction ratio (%), Am80 1 nM + Test compound [2] [%]	Differentiation induction ratio (%), Am80 1 nM + Test compound [3] [%]	Differentiation induction ratio (%), Test compound alone [4] [%]	Differentiation induction ratio (%), Am80 alone (Am80 alone 1 nM, cultured four days, NBT-positive cells)
CC1(C)CCC(C)(C)c2cc3c(cc21)Sc1ccccc1N=C3c1ccc(C(=O)O)cc1 [HX630, 4-[2,3-(2,5-dimethyl-2,5-hexano)dibenzo[b,f][1,4]thiazepin-11-yl]benzoic acid, reference compound]	72.3	27.8	20.4	1.6	
O=C(O)c1ccc(N(CC2CC2)c2cc3c4c(c2)CCCCC4CCCC3)cc1 [Example 20, 4-[N-Cyclopropylmethyl-(5,6,7,7a,8,9,10,11-octahydro-4H-2-benzo[ef]heptalenyl)amino]benzoic acid]	89.8	54.8	35.2	1.4	
CCN(c1ccc(C(=O)O)cc1)c1cc2c3c(c1)CCCC3CCC2 [Example 3, 4-[N-Ethyl-(5,6,6a,7,8,9-hexahydro-4H-2-phenalenyl)amino]benzoic acid]	25.8	26.4	20.5	1.5	
CC1(C)CCC(C)(C)c2cc(NC(=O)c3ccc(C(=O)O)cc3)ccc21 [Am80, 4-[(5,6,7,8-tetrahydro-5,5,8,8-tetramethyl-2-naphthalenyl)carbamoyl]benzoic acid, reference compound]					16.9% and 15.9%
CCN(c1ccc(C(=O)O)cc1)c1cc2c3c(c1)CCCCC3CCCC2 [Example 19, 4-[N-Ethyl-(5,6,7,7a,8,9,10,11-octahydro-4H-2-benzo[ef]heptalenyl)amino]benzoic acid]	85.4	44.6	31.8	2.2	
O=C(O)c1ccc(N(CC2CC2)c2cc3c4c(c2)CCCC4CCC3)cc1 [Example 4, 4-[N-Cyclopropylmethyl-(5,6,6a,7,8,9-hexahydro-4H-2-phenalenyl)amino]benzoic acid]	82.9	37.5	23.9	1.9	
